Experimental findings from patent publication US10307498B2, “Cleaning and disinfecting composition” (American Sterilizer Company, priority 2015, dated 2019) are described below.

The nature of this series: Stability of peracetic acid over a single disinfection cycle at different disinfection solution temperatures, FIGS. 4A-4D. Particulars: PAA alone or combined with builders/part (B). The series is classed as physicochemical. From the text: FIGS. 4A-4D are graphs that show the stability of peracetic acid over the time required for a single disinfection cycle, at different disinfection solution temperatures, and as a function of the presence or absence of two different builders formulations as well as the supplemental medium (B) of the present invention.
In the following Examples 6-8, parts (A) and (B) are as described above for Examples 1-5. Builders 1 contains two sodium phosphates, benzotriazole, tetrasodium ethylene diamine tetraacetate, a sodium molybdate, sodium hydroxide, an ethoxylated polyoxypropylene, a polyacrylate, a sodium phosphate, and water. Builders 2 contains a sodium phosphate, a sodium benzotriazole and a sodium salt of ethylene diamine tetraacetic acid.
FIGS. 4A-4D show the stability of peracetic acid over the time required for a single disinfection cycle (stability), at different disinfection solution temperatures when used alone (FIG. 4A), or in combination with prior art Builders 1 (FIG. 4B) or Builders 2 (FIG. 4C) or the supplemental medium part (B) of the present invention (FIG. 4D). The trend of each line can be used to understand the kinetics of stability (or conversely, the rate and amount of degradation of PAA). […]

On to `CC(=O)OO` [PAA, peracetic acid], for which the “stability of PAA solution” value was “relatively stable”.
